≈ marks a conversion by molar mass, not a printed value. Read-outs that look alike come from different tables or passages of the source.
What was measured:
P. aeruginosa [1] = experiment: Bacterial membrane permeability, propidium iodide flow cytometry; type: cell-based, Pseudomonas aeruginosa; settings: 30 min, PI staining
Protocol: Overnight P. aeruginosa culture was diluted 1:100 with fresh M9 medium and grown to early-mid exponential phase (OD600 = 0.4–0.6). […] Then the bacteria were incubated with propidium iodide (PI), a dye that is excluded from cells with impermeable membrane. The CytoFLEX flow cytometry (Beckman Coulter) was used to measure the bacterial fluorescent intensities and the data was analyzed using CytExpert 2.4 software. For the time-course detection of the bacterial permeability induced by Au1 or auranofin, P. aeruginosa in early-mid exponential phase (OD600 = 0.2) was incubated with PI dye on a 96-well plate. Au1 or auranofin was added to a final concentration of 50 μM. The fluorescence signal (561 nm excitation, 590 nm emission) and OD600 value were recorded on Cytation5 microplate reader. Each experiment was performed in triplicates.

lung carcinoma A549 cell = experiment: MTT cytotoxicity assay; type: cell-based, Human; settings: 48 h
Protocol: The cytotoxicity of gold compounds to mammalian cells was measured using the 3-(4, 5-dimethylthiazol-2-yl)-2, 5-diphenyltetrazolium bromide (MTT) assay. Human hepatocyte L-O2 cell, and lung carcinoma A549 cell were cultured in Corning 96 well microplates (10^4 cells per well) at 37°C for 18 h. Then the cells were incubated with gradient concentrations of gold compounds at 37°C for another 48 h. After the treatment, cell culture media were removed and the plates were wash with PBS for three times. And 90 μL fresh media and 10 μL 5 mg/ml MTT solution were added to each well and further incubated at 37°C for 4 h. Subsequently, the media were removed from the wells and 150 μL DMSO was added into each well to dissolve the formazan crystals. The absorbance at 490 nm of each well was measured with a micro-plate reader. The experiments were carried out in triplicates.

[2] = test system: Burkholderia cepacia J2315; experiment: MIC by standard broth dilution; type: cell-based; settings: Table S1
Protocol: (§1) Pseudomonas aeruginosa strain PAO1 (P. aeruginosa) was grown in M9 minimal medium (1.0 g/L NH4Cl, 0.5 g/L NaCl, 6.0 g/L Na2HPO4, 3.0 g/L KH2PO4) supplemented with 1.0 mM MgSO4, 1.0 mM ZnSO4, 0.2 mM CaCl2, 0.4% (w/v) glucose and 0.2% (w/v) casein hydrolysate. Gram-negative Escherichia coli strain K-12 (E. coli) and Burkholderia cepacia J2315 (B. cepacia) were cultured in Luria-Bertani (LB) medium (5 g/L yeast extract, 10 g/L tryptone, 10 g/L sodium chloride). The Gram-positive Staphylococcus aureus strain Newman (S. aureus) was grown in Tryptic Soy Broth (TSB) medium (17 g/L Tryptone, 3 g/L Phytone, 5 g/L sodium chloride, 2.5 g/L dipotassium phosphate and glucose 2.5 g/L).
(§2) The minimal inhibitory concentration (MIC) values of the gallium compounds were determined using a standard broth dilution method as described previously ([Wiegand et al., 2008]). In brief, the compounds were two-fold serially diluted to concentrations from 400 to 1.56 μM. Approximately 50 μL of the compound solution was added to a 96-well microtiter plate and mixed with 50 μL of bacteria culture in log phase (10^6 CFU/ml). The bacterial culture was further incubated at 37°C for 22–24 h. The OD600 values for each well was recorded on a microplate reader. The MICs value was defined as the lowest compound concentration that inhibited 95% of the bacterial growth.

[3] = test system: Staphylococcus aureus Newman; experiment: MIC by standard broth dilution; type: cell-based; settings: Table S1
Protocol: as §1, §2

[4] = test system: Pseudomonas aeruginosa strain PAO1; experiment: MIC by standard broth dilution; type: cell-based
Protocol: as §1, §2

Escherichia coli MG16552 = experiment: MIC by standard broth dilution; type: cell-based; settings: Table S1
Protocol: as §1, §2

P. aeruginosa PAO1 = experiment: Mouse skin wound infection model; type: in vivo
Protocol: Six-week-old female BALB/c mice were used for animal experiments to evaluate the healing effect of infected wounds in vivo. Briefly, mouse backs were cut to generate a circular wound (diameter 0.6 cm) with a hole punch and the wound was infiltrated using a medical cotton swab with P. aureginosa (overnight culture, OD600 = 0.3). The mice were randomly divided into three groups, including PBS, auranofin, and Au-1 groups (n = 5 in each group). The drugs were dissolved in DMSO and diluted with glycerol to a final concentration of 50 μM. After the bacterial fluid was dry, about 20 μL of the drug was added to the wound. Body weights and wound photography was recorded on days 0, 1, 3, 5, and 8. And on the 8th day, the mice were euthanized by chloral hydrate, the infectious tissues in all groups were collected and cultured into the LB plate for colony counting. The skin tissues were also fixed by paraformaldehyde solution (4%) for H&E, Gram, and Masson’s trichrome staining.
The above results promoted us to further investigate whether the Au1 compound was also efficacious in an in vivo animal infection model. To this end, we used a mouse wound infection model to assess the anti-P. aeruginosa efficacy of Au1 as described previously ([Liao et al., 2017b]). In brief, a circular wound with a diameter of 6 mm was created on the flank of mice, and approximately 5 × 10^8 CFU of P. aeruginosa PAO1 were dipped onto the wound by medical cotton swab to induce infection. Treatment is administered on the 1st day with auranofin or Au1 compound (50 μM, 20 μL) was applied to the wounds. The wound sizes and mice weights were recorded each day. On the 8th day, the infection sites were excised and part of the tissues was fixed in 4% paraformaldehyde and embedded in paraffin. Four-micrometer sections were cut, stained with Gram, H&E, and Masson’s trichrome stain. The remained tissues were homogenized and serially diluted for CFU quantification (Figure 6A).

P. aeruginosa [5] = experiment: Bacterial growth curves; type: cell-based, Pseudomonas aeruginosa; settings: 25 μM
Protocol: as §1

rhamnolipid = experiment: Rhamnolipid measurement (anthrone); type: cell-based, Pseudomonas aeruginosa; settings: 15 μM
Protocol: To quantify the secreted virulence factors, overnight P. aeruginosa PAO1 was diluted in fresh M9 medium and cultured to a final OD600 value of 0.15. Then Au1 or auranofin were added into culture with indicated concentrations. After 24 h incubation at 37°C, the bacterial supernatants were collected by centrifugation at 4,000 g for 10 min at 4°C and filtered using a 0.22 μm syringe filter (Millipore). The secreted virulence factors in the supernatant were quantified by the methods described below.
For rhamnolipid measurement, rhamnolipid was extracted from the supernatant with a mixture of chloroform and methanol (v:v = 2:1). The organic solvent phase was then evaporated to dryness and 100 μL methanol was added to dissolve the extracted rhamnolipid. Then 200 μL of pre-cooled anthrone solution (dissolving 2 g of anthrone in 1 L of concentrated H2SO4) was added into 20 μL extracted rhamnolipid sample and heat at 80°C for 30min. The rhamnolipid concentration was determined by measurement the absorbance at 630 nm.

P. aeruginosa [6] = experiment: Drug resistance development assay (serial passage); type: cell-based, Pseudomonas aeruginosa; settings: over 14 days
Protocol: Development of resistance to the Au1 compound and the antibiotics (ciprofloxacin and tobramycin) were assessed as described by [Habets and Brockhurst (2012)]. The MIC assay was performed on the first day as described above. […] Thereafter, a new passage MIC measurement assay was prepared using diluted bacterial cells grown at 0.5-fold MIC suspension. This was repeated for 14 passages and the MIC values for Au1, ciprofloxacin and tobramycin were recorded for each passage.

[7] = Pseudomonas aeruginosa PAO1, Table S1, read-out: MIC

Row | Compound | bacterial fluorescence signal compared with the control group (P. aeruginosa [1]; 50 μM) | IC50 (lung carcinoma A549 cell) | MIC [2] | MIC [3] | MIC ([4]; P. aeruginosa PAO1, lowest concentration inhibiting 95% of growth, 22–24 h, Table 1, listed as auranofin) | MIC ([4]; P. aeruginosa PAO1, lowest concentration inhibiting 95% of growth, 22–24 h, Table 1, read-out: MIC) | MIC [4, 7] | MIC (Escherichia coli MG16552) | toxicity to the mice (mice weights) (P. aeruginosa PAO1; 50 μM, 20 μL on wound, 8 days) | bacteria in wound tissue (Gram staining) (P. aeruginosa PAO1; 8th day) | bacteria remained live in the infection sites (P. aeruginosa PAO1; 8th day, CFU) | impact on the bacterial growth (P. aeruginosa [5]) | synthesis of rhamnolipid (rhamnolipid) | increase of MIC values (P. aeruginosa [6]) | bacterial fluorescence signal compared with the control group (P. aeruginosa [1]; 5 μM)
1 | CC(=O)OC[C@H]1O[C@@H]([S-])[C@H](OC(C)=O)[C@@H](OC(C)=O)[C@@H]1OC(C)=O.CCP(CC)CC.[Au+] [Au9, auranofin] | did not significantly affect | 2.8 ± 0.4 µM | >100 µM | <1.56 µM | higher than 400 μM | >400 µM | >100 µM | >100 µM | no significant toxicity | large number of bacteria | approximately 70% | little impact | significantly suppress |  | 
2 | CC1(C)S[C@@H]2[C@H](NC(=O)C(C(=O)O)c3ccccc3)C(=O)N2[C@H]1C(=O)O (some centres unmarked) [Carbenicillin] |  |  | > 100 µM | 6.25 µM (≈ 2.37 µg/mL) |  |  | > 100 µM | 25 µM (≈ 9.46 µg/mL) |  |  |  |  |  |  | 
3 | O=C(O)c1cn(C2CC2)c2cc(N3CCNCC3)c(F)cc2c1=O [Ciprofloxacin, ciprofloxacin] |  |  | 25 µM (≈ 8.28 µg/mL) | < 1.56 µM |  |  | < 1.56 µM | < 1.56 µM |  |  |  |  |  | 30 times | 
4 | NC[C@H]1O[C@H](O[C@H]2[C@H](O)[C@@H](O[C@H]3O[C@H](CO)[C@@H](O)[C@H](N)[C@H]3O)[C@H](N)C[C@@H]2N)[C@H](N)C[C@@H]1O [Tobramycin, tobramycin] |  |  | > 100 µM | 25 µM (≈ 11.7 µg/mL) |  |  | 12.5 µM (≈ 5.84 µg/mL) | 50 µM (≈ 23.4 µg/mL) |  |  |  |  |  | 30 times | 
5 | polymyxin B |  |  | >100 µM | >100 µM |  |  | <1.56 µM | <1.56 µM |  |  |  |  |  |  | remarkably increased
